How the values were obtained:
Experiment in all cases: cells
Format in all cases: cell-based
HL-60(TB) = settings: Homo sapiens; HL-60(TB); 10 μM; read-out: growth inhibition % (GI%)
NCI/ADR-RES = settings: Homo sapiens, 10 μM, read-out: growth inhibition % (GI%)
UACC-62 = settings: Homo sapiens; UACC-62; 10 μM; read-out: growth inhibition % (GI%)
UACC-257 = settings: Homo sapiens; UACC-257; 10 μM; read-out: growth inhibition % (GI%)
RPMI-8226 = settings: Homo sapiens; RPMI-8226; 10 μM; read-out: growth inhibition % (GI%)
DU-145 = settings: Homo sapiens; DU-145; 10 μM; read-out: growth inhibition % (GI%)
MALME-3M = settings: Homo sapiens; MALME-3M; 10 μM; read-out: growth inhibition % (GI%)
BT-549 = settings: Homo sapiens; BT-549; 10 μM; read-out: growth inhibition % (GI%)
NCI-H460 = settings: Homo sapiens; NCI-H460; 10 μM; read-out: growth inhibition % (GI%)
SF-539 = settings: Homo sapiens; SF-539; 10 μM; read-out: growth inhibition % (GI%)
OVCAR-5 = settings: Homo sapiens; OVCAR-5; 10 μM; read-out: growth inhibition % (GI%)

Measured: inhibition at 10 µM

CN1CCN(c2ccc(C=NNC(=O)CSc3nc4ccccc4c(=O)n3-c3ccc(Cl)cc3)cc2)CC1 [6l, 2-((3–(4-chlorophenyl)-4-oxo-3,4-dihydroquinazolin-2-yl)thio)-N'-(4–(4-methylpiperazin-1-yl)benzylidene)acetohydrazide]
< 15%: all assays above

COc1ccc(Oc2ccc(C=NNC(=O)CSc3nc4ccccc4c(=O)n3-c3ccccc3)cc2)cc1 [6c, N'-(4–(4-methoxyphenoxy)benzylidene)-2-((4-oxo-3-phenyl-3,4-dihydroquinazolin-2-yl)thio)acetohydrazide]
< 15%: all assays above

O=C(CSc1nc2ccccc2c(=O)n1-c1ccc(Cl)cc1)NN=Cc1ccc(N2CCOCC2)cc1 [6k, 2-((3–(4-chlorophenyl)-4-oxo-3,4-dihydroquinazolin-2-yl)thio)-N'-(4-morpholinobenzylidene) acetohydrazide]
< 15%: all assays above

O=C(CSc1nc2ccccc2c(=O)n1-c1ccc(Cl)cc1)NN=Cc1ccc(Oc2ccc(Br)cc2)cc1 [6e, N'-(4–(4-bromophenoxy)benzylidene)-2-((3–(4-chlorophenyl)-4-oxo-3,4-dihydroquinazolin-2-yl)thio)acetohydrazide]
< 15%: all assays above

CN1CCN(c2ccc(C=NNC(=O)CSc3nc4ccccc4c(=O)n3-c3ccccc3)cc2)CC1 [6i, N'-(4–(4-methylpiperazin-1-yl)benzylidene)-2-((4-oxo-3-phenyl-3,4-dihydroquinazolin-2-yl)thio) acetohydrazide]
< 15%: all assays above

O=C(CSc1nc2ccccc2c(=O)n1-c1ccccc1)NN=Cc1ccc(N2CCOCC2)cc1 [6h, N'-(4-morpholinobenzylidene)-2-((4-oxo-3-phenyl-3,4-dihydroquinazolin-2-yl)thio)acetohydrazide]
< 15%: all assays above

— article PMC9518264, “Design and synthesis of novel quinazolinone-based derivatives as EGFR inhibitors with antitumor activity” (Journal of Enzyme Inhibition and Medicinal Chemistry, 2022)
